Results reported in publication PMC11637191, “The pH-dependence of efflux ratios determined with bidirectional transport assays across cellular monolayers” (International Journal of Pharmaceutics: X, 2024).
Several values for one entry are separate records, joined by “and”; a condition that tells them apart may be missing. Identical values can stand only once. Like-named read-outs stand apart in the source and are kept apart here.

Columns and labels:
[1] = test system: MDCK-MDR1 cells; settings: MDCK-MDR1, pH 7.4
[2] = test system: MDCK-MDR1 cells; settings: cited from earlier work
[3] = test system: Caco-2 cells; experiment: Model fits of pH-gradient Caco-2 data of Neuhoff et al. (2003)
Text: Error bars represent standard deviation.
Fit Parameters A: Neutral-Neutral B: Ionic-Ionic C: Neutral-Ionic […]
(§1) X Measurement of paracellular transport […]
(§2) assess its relative contribution to overall flux, it is necessary to quantify paracellular transport in some way. An approximation of paracellular transport can be mathematically calculated as desc ribed in […]
(§3) and cell type can influence and complicate the predictions, leading to uncertainties. H owever, it can also be experimentally measured provided that it can be assured that the P app would be dominated by the contribution of P para . […]
compounds. In order to ensure paracellular dominance, 2 µM elacridar was used to inhibit potential P-gp facilitated efflux, and the transport buffer was set to a pH that would severely restrict the neutral

[4] = test system: MDCK-II-MDR1 cells
[5] = in vitro; settings: dog
[6] = test system: P-gp (MDR1); experiment: in vitro; settings: dog
[7] = Calculation of neutral fraction (fn)
[8] = test system: MDCK-MDR1 cells; experiment: Comparison of Papp,B-A with and without inhibitor in MDCK-MDR1 cells (own and literature data)
[9] = test system: P-gp (MDR1); experiment: as above; settings: dog, This study
[10] = Measurement of paracellular transport (Ppara) in MDCK-MDR1 cells with and without P-gp inhibitors; type: in vitro ADME, canine; settings: dog; for Papp: MDCK-MDR1, with elacridar 2 µM
Text: (§4) In initial fits, we used experimentally obtained values for Ppara , determined by measuring the Papp of the relevant compound at a pH value where paracellular transport was expected to dominate. Since the compounds in this study are P-gp substrates, elacridar was also used to inhibit P-gp. Under these conditions, the measured Papp is expected to be a measure of Ppara . […]
as §1, §2, §3
(§5) compounds. In order to ensure paracellular dominance, 2 µM elacridar was used to inhibit potential P-gp facilitated efflux, and the transport buffer was set to a pH that would severely restrict the neutral […]
(§6) Table S13: P app values and measured logP para for basic and acidic marker compounds. P app values are the mean of three timepoints per replicate, for a total of three replicates (n = 3) ± standard […]
(§7) Compound pH Papp, A⟶B logP para Recovery fn
(§8) In light of the uncertainties in predicting P para , it was presumed more apt to measure P para for each compound individually in parallel with the pH dependence experiments. As described in Section 4.3 of the main text, experiments were initially performed for each tested compound with inhibitor and appropriate pH values (similar to those performed for Table S12) in an attempt to ensure the dominance of paracellular transport. These values could then be used as a direct measure for P para for each compound that could be fed to the model for its individual fit. […]
(§9) affecting P para and/or the measurement of it, we measured the P app of more commonly-used markers for paracellular transport with and without inhibitor. The transport of these rather hydrophilic compounds is known to be dominated by the paracellular route. Furthermore, for our MDCK- MDR1 […]
(§10) efflux is not expected to play a role. As such, the addition of inhibitor in this case is purely to evaluate if the P app changes when it is present.

[11] = test system: P-gp (MDR1); experiment: as above; type: in vitro ADME, canine; settings: dog, pH 7.4, one replicate
Text: as §4, §1, §2, §3, §5, §6, §7, §8, §9, §10

[12] = determined 25 °C; etoposide acidic, acebutolol basic; ref Avdeef, 2012; cited from earlier work
[13] = Neutral-Neutral assumption, gradient pH method, basolateral pH 7.4, fit of Neuhoff et al. 2003 data
[14] = with inhibitor, pH 7.4 iso-method, ref Troutman and Thakker (2003)
[15] = without inhibitor, pH 7.4 iso-method, ref Troutman and Thakker (2003)
[16] = calculated from literature Papp,B⟶A and Papp with inhibitor, pH 7.4 iso-method

## CC[C@@H](CO)NC(=O)[C@@H]1C=C2c3cccc4c3c(cn4C)C[C@H]2N(C)C1 [Methysergide]
[1]; dog
  Factor difference: 2
[2]; MDCK-MDR1, pH 7.4
  Papp, B⟶A: 75.3
  Papp, inhibitor: 39.4

## C[C@H]1O[C@@H](O[C@H]2[C@@H](O)C[C@H](O[C@H]3[C@@H](O)C[C@H](O[C@H]4CC[C@@]5(C)[C@H](CC[C@@H]6[C@@H]5C[C@@H](O)[C@]5(C)[C@@H](C7=CC(=O)OC7)CC[C@]65O)C4)O[C@@H]3C)O[C@@H]2C)C[C@H](O)[C@@H]1O [Digoxin]
[3]; [13]
  Pb,app active (fitted): 51.6 ×10⁻⁶ cm/s
  Ppara (fitted): 5.22 ×10⁻⁶ cm/s
[3]; human, Caco-2
  P0: 2.69-06 cm/s
[3]; human, Caco-2, pH 7.4
  Ppgp,app active (fitted): 63.9 ×10⁻⁶ cm/s
[3]; neutral-neutral fit
  Pb active in Caco-2 fit compared with MDCK results (iso-pH method): one order of magnitude higher
[4]; pH 5, iso-pH method
  logPapp, A⟶B: -6.27 P in cm/s
  logPapp, B⟶A: -5.21 P in cm/s
[4]; pH 6, iso-pH method
  logPapp, A⟶B: -6.29 P in cm/s
  logPapp, B⟶A: -4.79 P in cm/s
[4]; pH 7.4, iso-pH method
  logPapp, A⟶B: -6.23 P in cm/s
  logPapp, B⟶A: -4.75 P in cm/s
[4]; pH 8, iso-pH method
  logPapp, A⟶B: -6.14 P in cm/s
  logPapp, B⟶A: -4.79 P in cm/s
[4]; pH 9, iso-pH method
  logPapp, A⟶B: -5.72 P in cm/s
  logPapp, B⟶A: -5.12 P in cm/s
[5]; MDCK-MDR1, pH 5
  recovery: 71 to 116%
[5]; MDCK-MDR1, pH 6
  recovery: 74 to 88%
[5]; MDCK-MDR1, pH 7.4
  recovery: 73 to 83%
[5]; MDCK-MDR1, pH 8
  recovery: 73 to 76%
[5]; MDCK-MDR1, pH 9
  recovery: 75 to 82%
[6]; MDCK-MDR1, pH 5
  Papp: 0.53 ± 0.15 ×10⁻⁶ cm/s
  Papp B→A: 6.12 ± 1.9 ×10⁻⁶ cm/s
[6]; MDCK-MDR1, pH 6
  Papp: 0.51 ± 0.12 ×10⁻⁶ cm/s
  Papp B→A: 16.3 ± 0.8 ×10⁻⁶ cm/s
[6]; MDCK-MDR1, pH 7.4
  Papp: 0.59 ± 0.11 ×10⁻⁶ cm/s
  Papp B→A: 17.8 ± 2.8 ×10⁻⁶ cm/s
[6]; MDCK-MDR1, pH 8
  Papp: 0.72 ± 0.13 ×10⁻⁶ cm/s
  Papp B→A: 16.3 ± 2 ×10⁻⁶ cm/s
[6]; MDCK-MDR1, pH 9
  Papp: 1.9 ± 0.32 ×10⁻⁶ cm/s
  Papp B→A: 7.63 ± 1.73 ×10⁻⁶ cm/s
[2]; with inhibitor, pH 7.4 iso-method, ref Chang et al. (2006)
  Papp, inhibitor: 2.04e-06 cm/s
[2]; with inhibitor, pH 7.4 iso-method, ref Taub et al. (2005)
  Papp, inhibitor: 1.39e-06 cm/s
[2]; [14]
  Papp, inhibitor: 7.5e-06 cm/s
[2]; with inhibitor, pH 7.4 iso-method, ref Wang et al. (2005)
  Papp, inhibitor: 1e-06 cm/s
[2]; without inhibitor, pH 7.4 iso-method, ref Chang et al. (2006)
  Papp, B⟶A: 1.52e-05 cm/s
[2]; without inhibitor, pH 7.4 iso-method, ref Taub et al. (2005)
  Papp, B⟶A: 8.15e-06 cm/s
[2]; [15]
  Papp, B⟶A: 3.57e-05 cm/s
[2]; without inhibitor, pH 7.4 iso-method, ref Wang et al. (2005)
  Papp, B⟶A: 9.75e-06 cm/s
[7]; neutral fraction at pH 7.4
  fn: 100%
[8]; This study, Papp,B⟶A vs Papp with inhibitor, pH 7.4 iso-method
  Factor difference: 7
[8]; [16]
  Factor difference: 10 and 6 and 5 and 7
[9]; MDCK-MDR1, pH 7.4, with P-gp inhibitor (elacridar 2 µM in this study's P0 assays), Papp, inhibitor, with inhibitor, pH 7.4 iso-method
  Papp: 2.53 ×10⁻⁶ cm/s

## NS(=O)(=O)c1cc2c(cc1Cl)N=CNS2(=O)=O [Chlorothiazide]
[10]; MDCK-MDR1, pH 7.4, A⟶B, no inhibitor, pH 7.4
  recovery: 125%
[10]; MDCK-MDR1, pH 7.4, B⟶A, no inhibitor, pH 7.4
  recovery: 104%
[10]; MDCK-MDR1, pH 7.4, with cyclosporin A 10 µM, A⟶B + cyclosporin-A, pH 7.4
  recovery: 108%
[10]; MDCK-MDR1, pH 7.4, with elacridar 2 µM, A⟶B + elacridar, pH 7.4
  recovery: 100%
[10]; MDCK-MDR1, pH 7.4, with verapamil 100 µM, A⟶B + verapamil, pH 7.4
  recovery: 96%
[10]; MDCK-MDR1, pH 9, with elacridar 2 µM, + 2 µM elacridar, pH 9, n = 3 (Table S13)
  recovery: 105%
[10]; + 2 µM elacridar, pH 9, three replicates (n = 3) (Table S13)
  Papp: 1.7 ± 0.7 ×10⁻⁶ cm/s
[11]; MDCK-MDR1, with cyclosporin A 10 µM, A → B + cyclosporin-A (10 μM)
  Papp: 0.7 ×10⁻⁶ cm/s
[11]; MDCK-MDR1, with elacridar 2 µM, A → B + elacridar (2 μM)
  Papp: 0.9 ×10⁻⁶ cm/s
[11]; MDCK-MDR1, with verapamil 100 µM, A → B + verapamil (100 μM)
  Papp: 1.4 ± 0.1 ×10⁻⁶ cm/s
[11]; MDCK-MDR1, A → B, no inhibitor
  Papp: 0.2 ×10⁻⁶ cm/s
[7]; neutral fraction at pH 7.4
  fn: 16.5%
[7]; neutral fraction at pH 9
  fn: 0.8%

## CCCC(=O)Nc1ccc(OCC(O)CNC(C)C)c(C(C)=O)c1 (centres unmarked) [Acebutolol]
[10]; MDCK-MDR1, pH 5, with elacridar 2 µM, + 2 µM elacridar, pH 5, n = 3 (Table S13)
  recovery: 100%
[10]; + 2 µM elacridar, pH 5, three replicates (n = 3) (Table S13)
  Papp: 0.6 ± 0.2 ×10⁻⁶ cm/s
[12]
  pKa: 9.18
[5]; MDCK-MDR1, pH 5
  recovery: 90 to 106%
[5]; MDCK-MDR1, pH 6
  recovery: 88 to 120%
[5]; MDCK-MDR1, pH 7
  recovery: 88 to 102%
[5]; MDCK-MDR1, pH 8
  recovery: 78 to 83%
[5]; MDCK-MDR1, pH 9
  recovery: 72 to 79%
[6]; MDCK-MDR1, pH 5
  Papp: 0.31 ± 0.11 ×10⁻⁶ cm/s
  Papp B→A: 0.28 ± 0.05 ×10⁻⁶ cm/s
[6]; MDCK-MDR1, pH 6
  Papp: 0.1 ± 0.02 ×10⁻⁶ cm/s
  Papp B→A: 0.47 ± 0.07 ×10⁻⁶ cm/s
[6]; MDCK-MDR1, pH 7
  Papp: 0.18 ± 0.02 ×10⁻⁶ cm/s
  Papp B→A: 2.92 ± 1.12 ×10⁻⁶ cm/s
[6]; MDCK-MDR1, pH 8
  Papp: 0.61 ± 0.28 ×10⁻⁶ cm/s
  Papp B→A: 16.7 ± 2.4 ×10⁻⁶ cm/s
[6]; MDCK-MDR1, pH 9
  Papp: 7.41 ± 3.04 ×10⁻⁶ cm/s
  Papp B→A: 38.5 ± 8.5 ×10⁻⁶ cm/s
[2]; [14]
  Papp, inhibitor: 3.73e-06 cm/s
[2]; [15]
  Papp, B⟶A: 1.72e-05 cm/s
[7]; neutral fraction at pH 5
  fn: 0.0%
[7]; neutral fraction at pH 8
  fn: 6%
[8]; This study, Papp,B⟶A vs Papp with inhibitor, varying pH with the iso-method
  Factor difference: 3 and 5
[8]; This study, with inhibitor, varying pH with the iso-method
  Papp, inhibitor: 3.16 ×10⁻⁶ cm/s
[8]; This study, without inhibitor, varying pH with the iso-method
  Papp, B⟶A: 16.7 ×10⁻⁶ cm/s
[8]; [16]
  Factor difference: 5
[9]; MDCK-MDR1, Papp, B⟶A, without inhibitor, varying pH with the iso-method
  Papp: 16.7 ×10⁻⁶ cm/s
[9]; MDCK-MDR1, pH 8, with P-gp inhibitor (elacridar 2 µM in this study's P0 assays), Papp, inhibitor, with inhibitor, varying pH with the iso-method
  Papp: 5.03 ×10⁻⁶ cm/s

## CC(C)N(CCC(c1ccccc1)c1cc(CO)ccc1O)C(C)C (centres unmarked) [5-Hydroxymethyl Tolterodine]
[1]
  Factor difference: 6
[2]; MDCK-MDR1, pH 7.4
  Papp, B⟶A: 6.3e-05 cm/s
  Papp, inhibitor: 1.1e-05 cm/s
